According to article PMC5855688, “BC-Box Motif-Mediated Neuronal Differentiation of Somatic Stem Cells” (International Journal of Molecular Sciences, 2018):
“Also recorded” adds a separate entry of the source.

Experiments:
STAT3 = assay: Western blotting of STAT3 before and after peptide treatment; format: cell-based, rat; conditions: Western blot, Figure 5B, p < 0.01
[1] = test system: skin-derived precursors (SKPs); assay: Immunocytochemistry with anti-Neurofilament-H (NFH) antibody; format: cell-based, rat (neonate Wistar); conditions: immunocytochemistry, peptides at 1 to 5 μM; mean ± SEM; vs VHL(157–171): p < 0.01 for VHL(157–168), p < 0.005 for TAT
Protocol: (§1) Rodent skin-derived precursor cells (SKPs), which can differentiate to neurons, were used. SKPs were previously isolated from the back dermis of neonate Wistar rats by the authors. These cells were cultured in growth medium composed of DMEM/F12 (1:1; Gibco, Grand Island, NY, USA) containing 2% B27 supplement (Gibco), 20 ng/mL epidermal growth factor (EGF; Upstate Biotechnology, Lake Placid, NY, USA), and 40 ng/mL bFGF (PeproTech EC Ltd., Rocky Hill, NJ, USA) in a humidified incubator at 37 °C with 5% CO2. The floating clusters of cultured cells were centrifuged and dissociated into a single-cell suspension by use of a Pasteur pipette with a flame-polished tip. These single cells were then re-suspended into at a concentration of 50,000 cells/mL for passage or experiments.
(§2) For neuronal differentiation, cells were dissociated into a single-cell suspension by use of a Pasteur pipette and re-suspended into a concentration of 50,000 cells/mL in DMEM/F12 without serum, neurotrophic factors or growth factors. Then, the cells were cultured on poly-L-lysine-coated dishes or cover glasses, and the synthesized peptides at concentrations from 1 to 5 μM were added to the culture medium and delivered into the cells. Three days or more later, the cells were used for morphological, immunocytochemical, immunohistochemical, electrophysiological and immunoprecipitation studies, as well as for Western blot analysis.
Cultured cells were fixed with 4% paraformaldehyde in PBS (Phosphate buffered saline) for 10 min at room temperature. Cells were incubated for 1 h at room temperature with primary antibodies. Antibodies against anti-MAP2 antibody (Sigma-Aldrich, St. Louis, MO, USA), anti-Neurofilment-H (NFH) antibody (Sigma-Aldrich), anti-NeuN antibody (Merk Millipore, Billerica, MA, USA), anti-GFAP antibody (DAKO, Santa Clara, CA, USA), anti-tyrosine hydroxylase (TH) antibody (Merk Millipore, Billerica, MA, USA), anti-choline acetyl transferase (ChAT) antibody (Abbiotec, San Diego, CA, USA), anti-glutamic acid decaboxylase (GAD) antibody (Enzo Life Sciences, Flamingdale, NY, USA), and anti-rhodopsin antibody (Santa Cruz, San Diego, CA, USA) were used. […] Nuclear counterstaining was done with DAPI (Molecular Probes, Eugene, OR, USA) or TO-PRO-3 (Molecular Probes), and observations were made with a fluorescence microscope system (FV300, Olympus, Tokyo, Japan). We counted the number of immuno-positive cells with a given antibody in 4 to 6 random non-overlapping visual fields (50–200 cells per field) in each experiment. […] The degree of positivity was expressed as the rate of immuno-positive cells to the total number of nuclei stained with DAP1 or TO-PRO-3.

JAK2 [2] = assay: Western blotting of JAK2 before and after peptide treatment; format: cell-based, rat; conditions: Western blot, Figure 5B, p < 0.01
[3] = test system: skin-derived precursors (SKPs); assay: Whole-cell patch-clamp electrophysiology; format: cell-based, rat (neonate Wistar); conditions: five days after peptide addition at 3 μM, holding potential −80 mV, steps of 20 mV from −100 to 100 mV, VHL(157–168) vs VHL(157–171) p < 0.01
Protocol: as §1, §2
To record fast sodium and delayed rectifier potassium currents, we prepared extracellular and intracellular solutions as described previously. […] For recordings and data analysis we used CEZ-2300 (Nihon Kohden, Tokyo, Japan) and pCLAMP 6.0 software (Axon Instruments, Burlingame, CA, USA). Linear components of leak and capacitive currents were reduced by analogue circuitry and then canceled by the P/N method. Signals were sampled every 20 μs, and currents were filtered at 5 kHz. Data were additionally processed with Origin 5.0 (Microcal, Northhampton, MA, USA).

[4] = test system: skin-derived precursors (SKPs); assay: Western blot analysis of NFH protein; format: cell-based, rat (neonate Wistar); conditions: three days after treatment, Figure 3B, peptides at 1 to 5 μM, less than VHL(157–171): VHL(157–168) p < 0.01, TAT p < 0.001
Protocol: as §1, §2
Cultured cells were washed 3 times in cold PBS and then scraped into ice-cold PBS. After incubation on ice for 10 min, the cells were lysed with lysis buffer and centrifuged, after which the supernatants were collected. Each sample was separated by SDS-PAGE under reducing conditions and transferred electrophoretically to nitrocellulose filters. Non-specific binding of antibody was blocked by incubation with 5% donkey serum for 1 h. Western blots were probed with anti-MAP2 antibody, anti-NFH antibody, anti-ChAT antibody, anti-GAD antibody, anti-rhodopsin antibody, anti-TH antibody, and anti-elongin C antibody (Santa Cruz, San Diego, CA, USA) followed by horseradish peroxidase-conjugated secondary antibodies. Protein bands were detected by using a chemical luminescence detection system (ECL Plus Western Blotting Reagent Pack, Amersham, Hemel Hempstead, UK). Images were analyzed with LAS-1000 (Fujifilm, Tokyo, Japan), and the density of the bands was determined by using Image Gauge software (Fujifilm).

JAK2 [5] = assay: Ubiquitination assay (IP anti-JAK2, IB anti-ubiquitin); format: biochemical, rat; conditions: incubation 4 h with ubiquitin, E1, E2 and peptide; vs no peptide or TAT, p < 0.001; Figure 5A
Protocol: We asked whether VHL(157–171) peptide-mediated neuronal differentiation was related to ubiquitination or not. […] After incubation for 4 h, cultured cells (1 × 10^6) were washed with ice-cold PBS and lysed in RIPA lysis buffer (Upstate, Charlottesville, VA, USA). The total protein was extracted from the cells, and the lysates were immunoprecipitated with anti-JAK2 antibody (Santa Cruz, San Diego, CA, USA) by using Protein A/G Sepharose (abcam, Cambridge, MA, USA). The immunoprecipitates were supplemented with 1 mM PMSF and the protease inhibitor cocktail. After 2 h, each sample was separated by SDS-PAGE and transferred electrophoretically to nitrocellulose filters. Western blots were probed with anti-ubiquitin antibody (Sigma-Aldrich) followed by horseradish peroxidase-conjugated secondary antibodies (Amersham). Protein bands were detected by using a chemical luminescence detection system (Amersham). Images were analyzed with LAS-1000 (Fujifilm).

## YARAAARQARATLKERCLQVVRSLVK [VHL(157–171), NDD in pVHL: BC-box motif plus five amino acids, conjugated with PTD]
STAT3
  STAT3 degradation: JAK2 and STAT3 were indeed degraded
[1]
  Percentage of NFH-positive cells: 60.4 ± 6.4%
JAK2 [2]
  JAK2 degradation: JAK2 and STAT3 were indeed degraded
[3]
  Voltage-gated outward K+ and inward Na+ currents: both large outward potassium currents and fast inward Na^+ currents
[4]
  NFH protein amount / band: A distinct band for NFH; also recorded: significantly greater amount of anti-NFH protein
JAK2 [5]
  JAK2 ubiquitination: had activity as an E3 ubiquitin ligase and mediated JAK2 ubiqutination; also recorded: ubiquitination was significantly enhanced
